What is called pKi is the Ki on a negative log10 scale, so that one unit is a factor of ten.

For one test, the target named is D2 receptor (Homo sapiens (Human), UniProt P14416). In words: Radioligand binding ([3H]-spiperone) to cloned D2 receptor expressed in HEK-293 EBNA cells. To be noted: HEK293 EBNA membranes, 0.7 nM [3H]-spiperone. As for the experimental part:
(§1) HEK293 EBNA cells were transiently transfected with expression plasmids encoding for the human D2 or D3 or for the human 5-HT2A receptor, respectively. The cells were harvested 48 h post-transfection, washed three times with cold PBS and stored at −80° C. prior to use. The pellet was suspended in cold 50 mM Tris-HCl buffer containing 10 mM EDTA (pH 7.4) and was homogenized with a Polytron (Kinematica AG, Basel, Switzerland) for 20-30 sec at 12.000 rpm. After centrifugation at 48.000×g for 30 min at 4° C., the pellet was resuspended in cold 10 mM Tris-HCl buffer containing 0.1 mM EDTA (pH 7.4), homogenized, and centrifuged as above. This pellet was further resuspended in a smaller volume of ice cold 10 mM Tris-HCl buffer containing 0.1 mM EDTA (pH 7.4) and homogenized with a Polytron for 20-30 sec at 12.000 rpm. The protein content of this homogenate was determined with the Bio-Rad (Bradford) Protein Assay (Biorad Laboratories GmbH, München, Germany) according to the instructions of the manufacturer using gamma globulin as the standard. This homogenate was stored at −80° C. in aliquots and thawed immediately prior to use.
(§2) Radioligand Binding Assay
(§3) Aliquots of membrane preparations were thawed at RT, resupended in assay buffer (D2, D3: 50 mM Tris-HCl, 120 mM NaCl, 5 mM MgCl2, 1 mM EDTA, 5 mM KCl, 1.5 mM CaCl2, pH=7.4; 5-HT2A: 50 mM Tris-HCl, 10 mM MgCl2, 1 mM EGTA, pH=7.4), homogenized with a Polytron for 20-30 sec at 12.000 rpm and adjusted to a final concentration of approximately 7.5 μg protein/well (D2, D3) and 15 μg protein/well (5-HT2A), respectively.
The binding affinity (Ki) of the compounds was determined using radioligand binding. […] The nonspecific binding was determined with equally composed reaction mixtures in the presence of 10 μM unlabelled spiperone. Per well 45 μl of Microscint 40 (Perkin Elmer, Schwerzenbach, Switzerland) was added, plates for sealed, shaken for 20 min and counted for 3 min on a Topcount Microplate Scintillation Counter (Canberra Packard SA, Zürich, Switzerland) with quenching correction.
(§4) The CPM value for each duplicate of a concentration of competing compound was averaged (y1), then the % specific binding was calculated according to the equation (((y1−non-specific)/(total binding−non-specific))×100). Graphs were plotted with the % specific binding using XLfit, a curve fitting program that iteratively plots the data using Levenberg-Marquardt algorithm. The single site competition analysis equation used was y=A+((B−A)/(1+((x/C)D))), where y is the % specific binding, A is the minimum y, B is the maximum y, C is the IC50, x is the log 10 of the concentration of the competing compound and D is the slope of the curve (the Hill Coefficient). […] The affinity constant (Ki) was calculated using the Cheng-Prusoff equation Ki=(IC50/1+([L]/Kd), where [L] is the concentration of radioligand and Kd is the dissociation constant of the radioligand at the receptor as determined by the saturation isotherm.

Another test deals with D3 receptor (Homo sapiens (Human), UniProt P35462). Nature of the test: Radioligand binding ([3H]-spiperone) to cloned D3 receptor expressed in HEK-293 EBNA cells. To be noted: HEK293 EBNA membranes, 0.5 nM [3H]-spiperone. As for the experimental part:
as §1, §2, §3
The binding affinity (Ki) of the compounds was determined using radioligand binding. […] At the end of the incubation, the reaction mixtures were filtered on to unifilter 96-well white microplates with bonded GF/C filters (Packard BioScience, Zürich, Switzerland; preincubated for 1 h in 0.1% polyethylenimine (PEI) in assay buffer) with a Filtermate 196 harvester (Packard BioScience) and washed 3 times with cold assay buffer. The nonspecific binding was determined with equally composed reaction mixtures in the presence of 10 μM unlabelled spiperone. Per well 45 μl of Microscint 40 (Perkin Elmer, Schwerzenbach, Switzerland) was added, plates for sealed, shaken for 20 min and counted for 3 min on a Topcount Microplate Scintillation Counter (Canberra Packard SA, Zürich, Switzerland) with quenching correction.
as §4

pKi: −log10 of the molar value.

Chain of D3 receptor (P35462 whole entry): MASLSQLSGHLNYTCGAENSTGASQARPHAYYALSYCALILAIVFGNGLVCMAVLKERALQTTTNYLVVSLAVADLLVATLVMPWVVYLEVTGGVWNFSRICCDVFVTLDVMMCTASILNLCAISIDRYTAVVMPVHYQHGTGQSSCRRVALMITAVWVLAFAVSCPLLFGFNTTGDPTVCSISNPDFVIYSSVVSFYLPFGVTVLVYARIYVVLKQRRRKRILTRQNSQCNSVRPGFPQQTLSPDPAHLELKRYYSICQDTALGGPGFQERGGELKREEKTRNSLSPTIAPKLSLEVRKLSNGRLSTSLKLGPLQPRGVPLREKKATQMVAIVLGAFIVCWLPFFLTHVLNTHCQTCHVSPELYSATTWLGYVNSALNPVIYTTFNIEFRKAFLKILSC
Chain of D2 receptor (P14416 whole entry): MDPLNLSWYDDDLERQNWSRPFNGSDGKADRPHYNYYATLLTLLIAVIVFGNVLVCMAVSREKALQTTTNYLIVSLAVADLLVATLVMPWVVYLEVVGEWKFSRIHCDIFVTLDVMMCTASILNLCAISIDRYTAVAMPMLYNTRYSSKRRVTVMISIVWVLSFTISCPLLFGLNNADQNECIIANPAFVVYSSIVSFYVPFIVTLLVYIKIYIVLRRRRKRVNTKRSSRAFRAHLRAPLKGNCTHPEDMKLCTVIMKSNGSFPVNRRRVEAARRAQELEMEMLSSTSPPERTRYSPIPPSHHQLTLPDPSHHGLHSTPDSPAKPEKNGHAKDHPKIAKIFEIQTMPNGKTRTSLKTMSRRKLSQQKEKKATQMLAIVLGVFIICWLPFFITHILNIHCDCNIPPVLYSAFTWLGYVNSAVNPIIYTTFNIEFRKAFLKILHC

For the compound `[2H]C1([2H])Oc2cccc(N3CCN(CC[C@H]4CC[C@H](NC(=O)[C@@H](C)OC)CC4)CC3)c2O1` [Example 82, (R)—N-trans{4-[2-(4-Benzo(2,2-D2)-[1,3]dioxol-4-yl-piperazin-1-yl)-ethyl]-cyclohexyl}-2-methoxypropanamide], the results for the negative-log Ki (pKi) on D2 receptor and at D3 receptor were 6.83 and 8.24, respectively.
As for `[2H]C1([2H])Oc2cccc(N3CCN(CC[C@H]4CC[C@H](NC(=O)COC)CC4)CC3)c2O1` [Example 79, N-trans-{4-[2-(4-Benzo(2,2-D2) [1,3]dioxol-4-yl-piperazin-1-yl)-ethyl]-cyclohexyl}-2-methoxy-acetamide], the negative logarithm of the Ki (pKi) at D2 receptor is 6.84; on D3 receptor, 8.30.
With `O=C(CC(F)(F)F)N[C@H]1CC[C@H](CCN2CCN(c3cccc4c3OCO4)CC2)CC1` [Example 16, Trans-N-{4-[2-(4-Benzo[1,3]dioxol-4-yl-piperazin-1-yl)-ethyl]-cyclohexyl}-3,3,3-trifluoro-propionamide], the pKi was 7.04 at D2 receptor and 8.80 on D3 receptor.
Turning to `COCCC(=O)N[C@H]1CC[C@H](CCN2CCN(c3cccc4c3OCO4)CC2)CC1` [Example 2, Trans-N-{4-[2-(4-Benzo[1,3]dioxol-4-yl-piperazin-1-yl)-ethyl]-cyclohexyl}-3-methoxy-propionamide], the pKi on D2 receptor is 6.76; on D3 receptor it was 8.73.
In the same order, the values of `O=C(N[C@H]1CC[C@H](CCN2CCN(c3cccc4c3OCO4)CC2)CC1)N1CCc2ccccc21` [Example 71, 2,3-Dihydro-indole-1-carboxylic acid-trans-N-{4-[2-(4-benzo[1,3]dioxol-4-yl-piperazin-1-yl)-ethyl]-cyclohexyl}-amide] are 6.62 and 8.70.
In the same order, the values of `CO[C@@H]1CC[C@@H](CC(=O)N[C@H]2CC[C@H](CCN3CCN(c4cccc5c4OCO5)CC3)CC2)C1` [Example 23, Trans-N-{4-[2-(4-Benzo[1,3]dioxol-4-yl-piperazin-1-yl)-ethyl]-cyclohexyl}-2-((1R,3R)-3-methoxy-cyclopentyl)-acetamide] are 6.74 and 8.60.
Take `O=C(C[C@H]1C[C@H](CO)C1)N[C@H]1CC[C@H](CCN2CCN(c3cccc4c3OCO4)CC2)CC1` [Example 74, N-trans-{4-[2-(4-Benzo[1,3]dioxol-4-yl-piperazin-1-yl)-ethyl]-cyclohexyl}-2-(3-hydroxymethyl-cyclobutyl)-acetamide]: the pKi at D2 receptor was 6.93; on D3 receptor, 8.61.
Consider `COC(C)C(=O)N[C@H]1CC[C@H](CCN2CCN(c3cccc4c3OCO4)CC2)CC1` (stereo in doubt) [Example 25, Trans(S)—N-{4-[2-(4-Benzo[1,3]dioxol-4-yl-piperazin-1-yl)-ethyl]-cyclohexyl}-2-methoxy-propionamide], for which the pKi was 6.60 on D2 receptor and 7.67 at D3 receptor.
On the same counts, the results for `O=C(Cc1ccc2c(c1)OCO2)N[C@H]1CC[C@H](CCN2CCN(c3cccc4c3OCO4)CC2)CC1` [Example 51, 2-Benzo[1,3]dioxol-5-yl-trans-N-{4-[2-(4-benzo[1,3]dioxol-4-yl-piperazin-1-yl)-ethyl]-cyclohexyl}-acetamide] are 6.17 and 8.68.
For the compound `O=C(N[C@H]1CC[C@H](CCN2CCN(c3cccc4c3OCO4)CC2)CC1)c1ccccc1` [Example 11, Trans-N-{4-[2-(4-Benzo[1,3]dioxol-4-yl-piperazin-1-yl)-ethyl]-cyclohexyl}-benzamide], the negative-log Ki (pKi) at D2 receptor was 6.57; on D3 receptor it was 8.00.
`CCC(=O)N[C@H]1CC[C@H](CCN2CCN(c3cccc4c3OCO4)CC2)CC1` [Example 7, Trans-N-{4-[2-(4-Benzo[1,3]dioxol-4-yl-piperazin-1-yl)-ethyl]-cyclohexyl}-propionamide]: the results for the pKi on D2 receptor and at D3 receptor were 7.13 and 8.89, respectively.
With `CO[C@H](C(=O)N[C@H]1CC[C@H](CCN2CCN(c3cccc4c3OCO4)CC2)CC1)C(C)C` [Example 65, (S)-trans-N-{4-[2-(4-Benzo[1,3]dioxol-4-yl-piperazin-1-yl)-ethyl]-cyclohexyl}-2-methoxy-3-methyl-butyramide], the figures for the pKi on D2 receptor and at D3 receptor were 6.95 and 7.70, respectively.
On to `O=C(N[C@H]1CC[C@H](CCN2CCN(c3cccc4c3OCO4)CC2)CC1)C1CCC1` [Example 54, Cyclobutanecarboxylic acid-trans-N-{4-[2-(4-benzo[1,3]dioxol-4-yl-piperazin-1-yl)-ethyl]-cyclohexyl}-amide], for which the pKi on D2 receptor was 7.04; on D3 receptor, 8.71.
In the same order, the values of `COC(C)(C)C(=O)N[C@H]1CC[C@H](CCN2CCN(c3cccc4c3OCO4)CC2)CC1` [Example 63, Trans-N-{4-[2-(4-Benzo[1,3]dioxol-4-yl-piperazin-1-yl)-ethyl]-cyclohexyl}-2-methoxy-2-methyl-propionamide] are 6.93 and 7.56.
On to `N#CCC(=O)N[C@H]1CC[C@H](CCN2CCN(c3cccc4c3OCO4)CC2)CC1` [Example 14, Trans-N-{4-[2-(4-Benzo[1,3]dioxol-4-yl-piperazin-1-yl)-ethyl]-cyclohexyl}-2-cyano-acetamide], for which the pKi at D2 receptor was 7.12; on D3 receptor, 9.04.
Regarding `O=S(=O)(N[C@H]1CC[C@H](CCN2CCN(c3cccc4c3OCO4)CC2)CC1)c1ccc(F)cc1` [Example 68, N-trans-{4-[2-(4-Benzo[1,3]dioxol-4-yl-piperazin-1-yl)-ethyl]-cyclohexyl}-4-fluoro-benzenesulfonamide], the pKi was 7.34 at D2 receptor and 8.66 on D3 receptor.
On the same counts, the results for `CS(=O)(=O)CC(=O)N[C@H]1CC[C@H](CCN2CCN(c3cccc4c3OCO4)CC2)CC1` [Example 55, Trans-N-{4-[2-(4-Benzo[1,3]dioxol-4-yl-piperazin-1-yl)-ethyl]-cyclohexyl}-2-methanesulfonyl-acetamide] are 7.02 and 8.84.
Regarding `COC1(C(=O)N[C@H]2CC[C@H](CCN3CCN(c4cccc5c4OCO5)CC3)CC2)CCCCC1` [Example 41, 1-Methoxy-cyclohexanecarboxylic acid-Trans-N-{4-[2-(4-benzo[1,3]dioxol-4-yl-piperazin-1-yl)-ethyl]-cyclohexyl}-amide], the negative logarithm of the Ki (pKi) is 6.60 on D2 receptor and 7.90 on D3 receptor.
On the same counts, the results for `CC(C)C(=O)N[C@H]1CC[C@H](CCN2CCN(c3cccc4c3OCO4)CC2)CC1` [Example 17, Trans-N-{4-[2-(4-Benzo[1,3]dioxol-4-yl-piperazin-1-yl)-ethyl]-cyclohexyl}-isobutyramide] are 6.86 and 8.74.
Consider `CO[C@@H](C(=O)N[C@H]1CC[C@H](CCN2CCN(c3cccc4c3OCO4)CC2)CC1)C(C)C` [Example 64, (R)-trans-N-{4-[2-(4-Benzo[1,3]dioxol-4-yl-piperazin-1-yl)-ethyl]-cyclohexyl}-2-methoxy-3-methyl-butyramide], for which the pKi on D2 receptor was 7.05; at D3 receptor, 7.83.
`CCCC(=O)N[C@H]1CC[C@H](CCN2CCN(c3cccc4c3OCO4)CC2)CC1` [Example 19, Trans-N-{4-[2-(4-Benzo[1,3]dioxol-4-yl-piperazin-1-yl)-ethyl]-cyclohexyl}-butyramide]: the pKi is 6.84 on D2 receptor and 8.80 on D3 receptor.
In the case of `COCC(=O)N[C@H]1CC[C@H](CCN2CCN(c3cccc4c3OCO4)CC2)CC1` [Example 9, Trans-N-{4-[2-(4-Benzo[1,3]dioxol-4-yl-piperazin-1-yl)-ethyl]-cyclohexyl}-2-methoxy-acetamide], the figures for the pKi at D2 receptor and on D3 receptor were 6.62 and 8.36, respectively.

Source of the values: patent US8722683B2, “Benzodioxole piperazine compounds” (Hoffmann LA-Roche Inc., priority 2011, dated 2014).
